Laboratory results: article PMC12508057, “Discovery of ETI41 and ETI60: novel selective endosomal Toll-like receptor inhibitors for the treatment of autoimmune diseases” (Experimental & Molecular Medicine, 2025)
Read-outs that look alike come from different tables or passages of the source.

Columns and labels:
TLR9 = target: T1, TLR9 (Mus musculus, UniProt Q9EQU3); experiment: TLR9 inhibition, TNF-α secretion (ELISA) in RAW 264.7; type: cell-based; conditions: for TLR9 TI value: therapeutic index, RAW 264.7
T1 construct: endogenous in cells; host or cells: RAW 264.7
T1 sequence (Q9EQU3 26-1032): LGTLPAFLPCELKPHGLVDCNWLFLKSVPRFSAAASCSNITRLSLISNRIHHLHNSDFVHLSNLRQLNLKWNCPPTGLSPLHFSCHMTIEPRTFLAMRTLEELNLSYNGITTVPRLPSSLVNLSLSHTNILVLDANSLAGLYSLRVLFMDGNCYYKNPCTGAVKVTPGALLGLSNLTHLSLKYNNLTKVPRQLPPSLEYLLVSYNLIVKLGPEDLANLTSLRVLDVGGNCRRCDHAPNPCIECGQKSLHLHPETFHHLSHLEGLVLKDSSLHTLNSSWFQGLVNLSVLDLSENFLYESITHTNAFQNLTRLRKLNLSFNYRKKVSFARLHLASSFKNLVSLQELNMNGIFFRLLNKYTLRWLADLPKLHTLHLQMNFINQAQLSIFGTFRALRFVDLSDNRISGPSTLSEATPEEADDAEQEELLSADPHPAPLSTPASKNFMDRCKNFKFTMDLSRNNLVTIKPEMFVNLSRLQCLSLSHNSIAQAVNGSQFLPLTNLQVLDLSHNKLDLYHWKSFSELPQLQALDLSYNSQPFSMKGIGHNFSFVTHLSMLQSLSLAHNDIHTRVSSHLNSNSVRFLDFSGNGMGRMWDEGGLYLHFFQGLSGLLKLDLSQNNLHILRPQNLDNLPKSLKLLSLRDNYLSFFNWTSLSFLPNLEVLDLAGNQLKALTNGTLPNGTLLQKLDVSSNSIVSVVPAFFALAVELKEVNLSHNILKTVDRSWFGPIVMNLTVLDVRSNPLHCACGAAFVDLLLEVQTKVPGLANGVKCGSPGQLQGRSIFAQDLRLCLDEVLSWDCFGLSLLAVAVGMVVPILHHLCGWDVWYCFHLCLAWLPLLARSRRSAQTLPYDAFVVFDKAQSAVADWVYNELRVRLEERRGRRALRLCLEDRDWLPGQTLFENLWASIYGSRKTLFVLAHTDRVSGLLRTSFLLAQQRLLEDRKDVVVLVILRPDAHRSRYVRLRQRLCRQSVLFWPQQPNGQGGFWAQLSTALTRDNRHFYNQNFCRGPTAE
Experimental: RAW 264.7 and differentiated THP-1 cells were seeded into 96-well plates at 2 × 10^4 cells per well, while Daudi cells were seeded at 5 × 10^4 cells per well. After stabilization for 30 min, cells were stimulated with specific TLR agonists for 4 or 24 h. Supernatants were diluted and transferred to precoated ELISA plates to measure TNF-α secretion using kits from Invitrogen. Optical absorbance was measured using a BioTek Synergy HTX multimode microplate reader, and data were interpolated using BioTek Gen5 software.
One-tailed paired Student’s t-tests were performed using Microsoft Excel (Microsoft). Semi-logarithmic conversions and nonregression curve analyses for calculating 50% lethal concentration (LC50) and 50% inhibitory concentration (IC50) values were conducted using GraphPad Prism 7.0 (GraphPad). The therapeutic index was calculated as […]. Animal experimental results are expressed as mean ± standard deviation and analyzed using SPSS v.20 (IBM SPSS Statistics). Homogeneity of variance was assessed using Levene’s test.
The cells were activated with agonistic ligands: […], TLR3 (poly I:C, 2 μg/ml, 24 h), TLR4 (LPS, 10 or 100 ng/ml, 4 h), TLR5 (FLA-ST, 500 ng/ml, 4 h), TLR7 (ORN06/LyoVec, 2 μg/ml, 24 h; and IMQ, 1 μg/ml, 4 h), TLR8 (TL8-506, 2 μg/ml, 24 h) and TLR9 (ODN2395, 1 μM, 4 h) at various concentrations in RAW 264.7 cells, human Daudi cells and THP-1 cells. Data are from at least three independent experiments (n = 3) and statistical differences between the induced case and other cases were analyzed and verified using a one-tailed Student’s t-test (*P < 0.05, **P < 0.01, ***P < 0.001).

[1] = system: IMQ-induced (TLR7) gene expression in RAW 264.7 cells; experiment: 3' mRNA sequencing of IMQ-stimulated RAW 264.7 cells; type: cell-based, mouse; conditions: for Expression of IMQ-induced inflammation-associated genes: RAW 264.7, 2 and 4 h; for Differentially expressed genes (DEGs) / Downregulated DEGs / Upregulated DEGs: RAW 264.7, IMQ-stimulated
Experimental: RNA quality was assessed using a TapeStation 4000 system (Agilent Technologies). Libraries were prepared using a QuantSeq 3 mRNA-Seq Library Prep Kit FWD (Lexogen) and sequenced using a NextSeq 550 System (Illumina). Sequences were trimmed using BBDuk and aligned with Bowtie2, and the reads were counted using Bedtools[21]–[23]. Data were normalized using edgeR software (Ebiogen) and analyzed for gene function using the Database for Annotation, Visualization, and Integrated Discovery) and for pathway analysis using KEGG Mapper[24],[25]. RNA-seq data were deposited in the Gene Expression Omnibus database under accession number GSE255890.
Fig. 2 ETI41 and ETI60 inhibit TLR7- and TLR9-dependent downstream signaling. a, b Western blot analysis was used to quantify the protein levels of phosphorylated p-ERK, p-JNK, p38, Iκ-Bα and p65. RAW 264.7 cells were treated with 5 μM or 10 μM of ETI41 or ETI60, followed by exposure to IMQ (2 μg/ml) for 20 or 30 min (a) and ODN2395 (1 μM) for 40 or 50 min (b) respectively. β-Actin served as a loading control for the cytosol, while lamin A/C was utilized as a loading control for the nucleus. c Protein levels of IRF7 were measured after treatment with 5 μM of ETI41 or ETI60, followed by treatment with ODN2395 (1 μM) for 6 or 8 h. d BMDC cells from ex vivo were used to analyze mRNA expression levels of IL-12p40, IFN-β and CD40. Cells were pretreated with ETI41 (0.2 and 1 μM), followed by treatment with ODN2395 (1 μM) for 3 h. All experiments were independently conducted three times. Statistical differences between the induced and other cases were analyzed and verified using a one-tailed Student’s t-test (*P < 0.05, **P < 0.01, ***P < 0.001). e–g The TLR7 agonist IMQ (1 μM) was used in 3’ RNA-seq analysis to induce signaling associated with immune responses in RAW 264.7 cells. […] (e–g) depict changes in gene expression categories without pretreatment (e) after pretreatment with ETI41 (f) or after pretreatment with ETI60 (g) followed by IMQ stimulation. h Heatmaps depicting gene expression patterns within the inflammation and immune response categories (fold change >2.5, P < 0.05) of ETI41 or ETI60, dividing the time after IMQ treatment into 0, 2 and 4 h, respectively. […]

Q: Which results are given for `Cc1cc2c(N)c3c(nc2n1CCCN(C)C)CCCCCC3` [ETI41]?
A: IC50 (TLR9): 0.16 µM; TLR9 TI value (TLR9): 419.88; Expression of IMQ-induced inflammation-associated genes [1]: markedly reduced; Differentially expressed genes (DEGs) [1]: 509; Downregulated DEGs [1]: 296; Upregulated DEGs [1]: 213

Q: Which results are given for `COc1ccc2c3c(N)c4c(nc3n(CCCN(C)C)c2c1)CCCC4` [ETI60]?
A: IC50 (TLR9; RAW 264.7 cell line, read-out: TLR9 IC50 (mTNFα)): 0.12 µM; TLR9 TI value (TLR9): 422.71; Expression of IMQ-induced inflammation-associated genes [1]: markedly reduced; Differentially expressed genes (DEGs) [1]: 727; Downregulated DEGs [1]: 380; Upregulated DEGs [1]: 347
